Test results from patent US10487093B2, “Heterocyclic compounds, in particular 2-oxo-4,4,5,5,6,6,7,7-octahydrobenzoxazole derivatives, and their use as antibacterial compounds” (priority 2016, dated 2019).
≈ marks a conversion by molar mass, not a printed value.

Assays:
[1] = test system: Acinetobacter baumannii NCTC 13420; assay: MIC, broth microdilution (CLSI) versus planktonic bacteria; assay type: cell-based; conditions: NCTC13420; Acinetobacter baumannii NCTC 13420; 16-20 h; mode of three independent experiments; read-out: MIC, Ab NCTC 13420
[2] = test system: Acinetobacter baumannii ATCC 19606; assay: as above; assay type: cell-based; conditions: ATCC19606; Acinetobacter baumannii ATCC 19606; 16-20 h; mode of three independent experiments; read-out: MIC, Ab ATCC 19606
[3] = test system: Enterobacter cloacae NCTC 13406; assay: as above; assay type: cell-based; conditions: NCTC13406; Enterobacter cloacae NCTC 13406; 16-20 h; mode of three independent experiments; read-out: MIC, Ecl NCTC 13406
[4] = test system: Escherichia coli ATCC 25922; assay: as above; assay type: cell-based; conditions: ATCC25922; Escherichia coli ATCC 25922; 16-20 h; mode of three independent experiments; read-out: MIC, Ec ATCC 25922
E. coli ATCC BAA-2452 = assay: as above; assay type: cell-based; conditions: Escherichia coli ATCC BAA-2452; 16-20 h; mode of three independent experiments; read-out: MIC, Ec ATCC BAA 2452
E. coli NCTC 13476 = assay: as above; assay type: cell-based; conditions: NCTC13476; Escherichia coli NCTC 13476; 16-20 h; mode of three independent experiments; read-out: MIC, Ec NCTC 13476
[5] = test system: Haemophilus influenzae ATCC 49247; assay: as above; assay type: cell-based; conditions: ATCC49247; Haemophilus influenzae ATCC 49247; 16-20 h; mode of three independent experiments; read-out: MIC, Hi ATCC 49247
[6] = test system: Pseudomonas aeruginosa ATCC 27853; assay: as above; assay type: cell-based; conditions: ATCC27853; Pseudomonas aeruginosa ATCC 27853; 16-20 h; mode of three independent experiments; read-out: MIC, Pa ATCC 27853
[7] = test system: Staphylococcus aureus ATCC 29213; assay: as above; assay type: cell-based; conditions: ATCC29213; Staphylococcus aureus ATCC 29213; 16-20 h; mode of three independent experiments; read-out: MIC, Sa ATCC 29213
[8] = test system: Streptococcus pneumoniae ATCC 49619; assay: as above; assay type: cell-based; conditions: ATCC49619; Streptococcus pneumoniae ATCC 49619; 16-20 h; mode of three independent experiments; read-out: MIC, Sp ATCC 49619
[9] = test system: human hepatic cell line (HepG2 ATCC HB-8065); assay: Human cell viability assay (CellTiter-Glo); conditions: Homo sapiens, HepG2, 24 h, read-out: IC50 (μg/mL) HepG2
E. coli MG1655 = assay: MIC, broth microdilution (CLSI) versus planktonic bacteria; assay type: cell-based, Escherichia coli; conditions: Escherichia coli, MG1655, read-out: MIC, Ec MG1655 WT
E. coli MG1655 S83L = assay type: cell-based, Escherichia coli; conditions: compared to the isogenic parent strain E. coli MG1655; S83L mutation on DNA gyrase subunit GyrA
E. coli MG1655 D87G = assay type: cell-based, Escherichia coli; conditions: compared to the isogenic parent strain E. coli MG1655; D87G mutation on DNA gyrase subunit GyrA

Compound	MIC [1] [µg/mL]	MIC [2] [µg/mL]	MIC [3] [µg/mL]	MIC [4] [µg/mL]	MIC (E. coli ATCC BAA-2452) [µg/mL]	MIC (E. coli NCTC 13476) [µg/mL]	MIC [5] [µg/mL]	MIC [6] [µg/mL]	MIC [7] [µg/mL]	MIC [8] [µg/mL]	IC50 [9] [µg/mL]	MIC (E. coli MG1655) [µg/mL]	Fold increase in MIC, E. coli MG1655 S83L (E. coli MG1655 S83L) [fold]	Fold increase in MIC, E. coli MG1655 D87G (E. coli MG1655 D87G) [fold]
COc1ccc2ccc(=O)n(CCCN[C@H]3CC[C@H]4[C@H](C3)OC(=O)N4c3ccc4c(n3)NC(=O)CO4)c2n1 [Compound 83, 1-(3-{[(3aS,6S,7aS)-2-oxo-3-{3-oxo-2H,3H,4H-pyrido[3,2-b][1,4]oxazin-6-yl}-octahydro-1,3-benzoxazol-6-yl]amino}propyl)-7-methoxy-1,2-dihydro-1,8-naphthyridin-2-one]	< 1	< 1	< 1	< 1	< 1	< 1	< 1	1 to 10 (≈ 1.92 to 19.2 µM)	< 1	< 1	10 to 100 (≈ 19.2 to 192 µM)			
O=C1COc2cnc(N3C(=O)O[C@@H]4C[C@H](NCCn5c(=O)cnc6cc(F)c(F)cc65)CC[C@H]43)nc2N1 [Compound 38, 1-(2-{[(3aR,6R,7aR)-2-oxo-3-{7-oxo-6H,7H,8H-pyrimido[5,4-b][1,4]oxazin-2-yl}-octahydro-1,3-benzoxazol-6-yl]amino}ethyl)-6,7-difluoro-1,2-dihydroquinoxalin-2-one]	1 to 10 (≈ 1.95 to 19.5 µM)	1 to 10 (≈ 1.95 to 19.5 µM)	< 1	< 1	1 to 10 (≈ 1.95 to 19.5 µM)	1 to 10 (≈ 1.95 to 19.5 µM)	< 1	1 to 10 (≈ 1.95 to 19.5 µM)	< 1	< 1	10 to 100 (≈ 19.5 to 195 µM)	< 1	2	
COc1ccc2c3conc3c(=O)n(CCN[C@H]3CC[C@H]4[C@@H](C3)OC(=O)N4c3ccc4c(n3)NC(=O)CO4)c2c1 [Compound 11, (3aS,6S,7aR)-6-[(2-{7-methoxy-4-oxo-4H,5H-[1,2]oxazolo[3,4-c]quinolin-5-yl}ethyl)amino]-3-{3-oxo-2H,3H,4H-pyrido[3,2-b][1,4]oxazin-6-yl}-octahydro-1,3-benzoxazol-2-one]	< 1	1 to 10 (≈ 1.83 to 18.3 µM)	1 to 10 (≈ 1.83 to 18.3 µM)	< 1			1 to 10 (≈ 1.83 to 18.3 µM)	1 to 10 (≈ 1.83 to 18.3 µM)	< 1	1 to 10 (≈ 1.83 to 18.3 µM)	10 to 100 (≈ 18.3 to 183 µM)	< 1	2	1
O=C1COc2ccc(N3C(=O)O[C@@H]4C[C@@H](NCCn5c(=O)ccc6ccc(Oc7cccnc7)nc65)CC[C@@H]43)nc2N1 [Compound 12, 1-(2-{[(3aS,6S,7aR)-2-oxo-3-{3-oxo-2H,3H,4H-pyrido[3,2-b][1,4]oxazin-6-yl}-octahydro-1,3-benzoxazol-6-yl]amino}ethyl)-7-(pyridin-3-yloxy)-1,2-dihydro-1,8-naphthyridin-2-one]	1 to 10 (≈ 1.76 to 17.6 µM)	1 to 10 (≈ 1.76 to 17.6 µM)	1 to 10 (≈ 1.76 to 17.6 µM)	< 1			1 to 10 (≈ 1.76 to 17.6 µM)	1 to 10 (≈ 1.76 to 17.6 µM)	< 1	< 1	> 100	< 1	1	1
O=C1COc2ccc(N3C(=O)O[C@@H]4C[C@H](NCCn5c(=O)cnc6ccc(F)cc65)CC[C@H]43)nc2N1 [Compound 86, 1-(2-{[(3aR,6R,7aR)-2-oxo-3-{3-oxo-2H,3H,4H-pyrido[3,2-b][1,4]oxazin-6-yl}-octahydro-1,3-benzoxazol-6-yl]amino}ethyl)-7-fluoro-1,2-dihydroquinoxalin-2-one]	< 1	< 1	< 1	< 1	< 1	< 1	< 1	1 to 10 (≈ 2.02 to 20.2 µM)	< 1	< 1	10 to 100 (≈ 20.2 to 202 µM)			
C=CCOc1ccc2ccc(=O)n(CCN[C@H]3CC[C@H]4[C@H](C3)OC(=O)N4c3ccc4c(n3)NC(=O)CO4)c2c1 [Compound 89, 1-(2-{[(3aS,6S,7aS)-2-oxo-3-{3-oxo-2H,3H,4H-pyrido[3,2-b][1,4]oxazin-6-yl}-octahydro-1,3-benzoxazol-6-yl]amino}ethyl)-7-(prop-2-en-1-yloxy)-1,2-dihydroquinolin-2-one]	< 1	< 1	1 to 10 (≈ 1.88 to 18.8 µM)	< 1	< 1	1 to 10 (≈ 1.88 to 18.8 µM)	1 to 10 (≈ 1.88 to 18.8 µM)	1 to 10 (≈ 1.88 to 18.8 µM)	< 1	< 1	10 to 100 (≈ 18.8 to 188 µM)			
COc1cnc2ccc(=O)n(CCN[C@H]3CC[C@H]4[C@H](C3)OC(=O)N4c3ccc4c(n3)NC(=O)CO4)c2c1 [Compound 42, 7-methoxy-1-{2-[(2-oxo-3-{3-oxo-2H,3H,4H-pyrido[3,2-b][1,4]oxazin-6-yl}-octahydro-1,3-benzoxazol-6-yl)amino]ethyl}-1,2-dihydro-1,5-naphthyridin-2-one]	< 1	1 to 10 (≈ 1.97 to 19.7 µM)	< 1	< 1			< 1	1 to 10 (≈ 1.97 to 19.7 µM)	< 1	< 1	> 100	< 1	1	2
COc1ccc2ccc(=O)n(CCN(CCN)[C@H]3CC[C@H]4[C@@H](C3)OC(=O)N4c3ccc4c(n3)NC(=O)CO4)c2n1 [Compound 13, 1-(2-{[(3aS,6S,7aR)-2-oxo-3-{3-oxo-2H,3H,4H-pyrido[3,2-b][1,4]oxazin-6-yl}-octahydro-1,3-benzoxazol-6-yl](2-aminoethyl)amino}ethyl)-7-methoxy-1,2-dihydro-1,8-naphthyridin-2-one]	10 to 100 (≈ 18.2 to 182 µM)		10 to 100 (≈ 18.2 to 182 µM)	1 to 10 (≈ 1.82 to 18.2 µM)		1 to 10 (≈ 1.82 to 18.2 µM)	10 to 100 (≈ 18.2 to 182 µM)	1 to 10 (≈ 1.82 to 18.2 µM)	< 1	1 to 10 (≈ 1.82 to 18.2 µM)	> 100			
N#Cc1cnc2ccc(=O)n(CCCN[C@H]3CC[C@H]4[C@H](C3)OC(=O)N4c3ccc4c(n3)NC(=O)CO4)c2c1 [Compound 82, 5-(3-{[(3aS,6S,7aS)-2-oxo-3-{3-oxo-2H,3H,4H-pyrido[3,2-b][1,4]oxazin-6-yl}-octahydro-1,3-benzoxazol-6-yl]amino}propyl)-6-oxo-5,6-dihydro-1,5-naphthyridine-3-carbonitrile]	1 to 10 (≈ 1.94 to 19.4 µM)	1 to 10 (≈ 1.94 to 19.4 µM)	1 to 10 (≈ 1.94 to 19.4 µM)	< 1	1 to 10 (≈ 1.94 to 19.4 µM)		< 1	1 to 10 (≈ 1.94 to 19.4 µM)	< 1	< 1		< 1	0.5	1
